Test results published in patent US9926281B2 (priority 2014, dated 2018).

How the values were obtained:
human MMP13 = human MMP13 (Homo sapiens (Human), UniProt P45452); settings: read-out: hMMP-13 potency IC50
Procedure: Human MMP13 is preactivated by incubated the enzyme in the same buffer complemented with 1 mM freshly prepared p-Aminophenylmercuric acetate (AMPA) for 1 hour at 37° C.

human ADAMTS-5 = human ADAMTS-5 (Homo sapiens (Human), UniProt Q9UNA0); settings: read-out: hADAMTS-5 potency IC50
Procedure: Finally, the fluorescence is read on the Envision (Perkin Elmer) after an incubation of 90 min at 37° C.

rnADAMTS-5 (1-564-6H) = rnADAMTS-5 (1-564-6H) (Rattus norvegicus, UniProt Q6TY19); settings: read-out: Rat ADAMTS-5 potency IC50
human TACE = human TACE (Homo sapiens (Human), UniProt P78536); settings: read-out: TACE potency IC50
human TACE, sequence (P78536 whole entry, looked up, change not shown): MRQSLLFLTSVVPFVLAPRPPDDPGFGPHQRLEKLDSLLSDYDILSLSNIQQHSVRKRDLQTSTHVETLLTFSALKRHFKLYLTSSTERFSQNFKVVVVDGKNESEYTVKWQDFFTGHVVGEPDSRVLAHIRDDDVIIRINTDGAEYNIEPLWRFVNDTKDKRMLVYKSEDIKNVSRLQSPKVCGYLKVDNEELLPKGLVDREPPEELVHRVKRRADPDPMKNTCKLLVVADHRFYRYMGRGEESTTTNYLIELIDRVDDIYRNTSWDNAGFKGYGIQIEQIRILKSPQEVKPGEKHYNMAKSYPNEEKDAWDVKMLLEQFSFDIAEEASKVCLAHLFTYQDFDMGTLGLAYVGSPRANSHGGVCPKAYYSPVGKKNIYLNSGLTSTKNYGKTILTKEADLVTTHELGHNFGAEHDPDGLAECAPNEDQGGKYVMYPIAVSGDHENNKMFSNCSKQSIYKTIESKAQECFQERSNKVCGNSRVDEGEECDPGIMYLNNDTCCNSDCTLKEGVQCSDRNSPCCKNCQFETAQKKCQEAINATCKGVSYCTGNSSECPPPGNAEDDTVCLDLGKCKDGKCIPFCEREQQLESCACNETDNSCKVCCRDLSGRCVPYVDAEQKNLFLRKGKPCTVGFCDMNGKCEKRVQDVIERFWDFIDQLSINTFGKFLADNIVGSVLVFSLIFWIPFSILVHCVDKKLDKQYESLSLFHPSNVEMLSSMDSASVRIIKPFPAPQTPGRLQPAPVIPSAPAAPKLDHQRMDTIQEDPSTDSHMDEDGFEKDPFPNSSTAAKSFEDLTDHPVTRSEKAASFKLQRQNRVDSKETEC

human ADAMTS-5, sequence (Q9UNA0 262-930): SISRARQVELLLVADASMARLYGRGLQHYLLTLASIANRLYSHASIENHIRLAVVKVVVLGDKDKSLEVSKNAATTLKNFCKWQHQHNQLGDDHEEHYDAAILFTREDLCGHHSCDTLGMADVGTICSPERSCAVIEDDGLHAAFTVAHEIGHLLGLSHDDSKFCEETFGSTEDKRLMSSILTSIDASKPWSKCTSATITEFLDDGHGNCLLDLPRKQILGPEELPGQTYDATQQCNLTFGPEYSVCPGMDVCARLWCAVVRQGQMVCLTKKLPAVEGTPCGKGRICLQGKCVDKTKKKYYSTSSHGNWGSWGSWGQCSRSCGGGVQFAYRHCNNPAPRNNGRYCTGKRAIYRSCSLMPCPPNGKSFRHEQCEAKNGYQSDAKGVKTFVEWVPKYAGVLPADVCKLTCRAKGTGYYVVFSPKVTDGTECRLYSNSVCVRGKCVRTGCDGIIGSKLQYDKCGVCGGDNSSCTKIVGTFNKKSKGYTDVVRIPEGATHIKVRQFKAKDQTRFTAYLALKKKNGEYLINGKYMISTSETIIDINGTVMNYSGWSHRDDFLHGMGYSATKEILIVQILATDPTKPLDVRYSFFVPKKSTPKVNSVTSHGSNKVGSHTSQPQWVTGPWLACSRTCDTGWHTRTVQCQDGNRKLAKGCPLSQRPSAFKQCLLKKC

| Compound | IC50 (human MMP13) | IC50 (human ADAMTS-5) | IC50 (rnADAMTS-5 (1-564-6H)) | IC50 (human TACE) |
| --- | --- | --- | --- | --- |
| O=C1NC(=O)C(CCC(=O)N2CCN(c3cc(Cl)cc(Cl)c3)CC2)(CNCc2ccccc2)N1 (stereo not drawn) [Cpd 181, 5-[(benzylamino)methyl]-5-[3-[4-(3,5-dichlorophenyl)piperazin-1-yl]-3-oxo-propyl]imidazolidine-2,4-dione] | > 20 µM | 97 nM | 127 nM | 2.86 µM |
| COC(=O)CC1(CCC(=O)N2CCN(c3cc(Cl)cc(Cl)c3)CC2)NC(=O)NC1=O (stereo not drawn) [Cpd 182, Methyl 2-[4-[3-[4-(3,5-dichlorophenyl)piperazin-1-yl]-3-oxo-propyl]-2,5-dioxo-imidazolidin-4-yl]acetate] | > 20 µM | 104 nM | 87 nM | > 4 µM |
| CC(C)(C)OC(=O)CC1(CCC(=O)N2CCN(c3cc(Cl)cc(Cl)c3)CC2)NC(=O)NC1=O (stereo not drawn) [Cpd 188, tert-butyl 2-[4-[3-[4-(3,5-dichlorophenyl)piperazin-1-yl]-3-oxo-propyl]-2,5-dioxo-imidazolidin-4-yl]acetate] | 2.67 µM | 53 nM | 54 nM | > 4 µM |
| O=C(CC1(CCC(=O)N2CCN(c3cc(Cl)cc(Cl)c3)CC2)NC(=O)NC1=O)NCCO (stereo not drawn) [Cpd 189, 2-[4-[3-[4-(3,5-dichlorophenyl)piperazin-1-yl]-3-oxo-propyl]-2,5-dioxo-imidazolidin-4-yl]-N-(2-hydroxyethyl)acetamide] | > 20 µM | 256 nM | 254 nM | > 4 µM |
| C[C@H]1CN(C(=O)CCC2(C3CC3)NC(=O)NC2=O)CCN1c1cc(Cl)cc(Cl)c1 (stereo partly drawn) [compound 142, 5-cyclopropyl-5-[3-[(3S)-4-(3,5-dichlorophenyl)-3-methyl-piperazin-1-yl]-3-oxo-propyl]imidazolidine-2,4-dione] | > 20 µM | – | 54 nM | > 4 µM |
| Cc1ccc(F)cc1N1CCN(C(=O)CCC2(C)NC(=O)NC2=O)C[C@@H]1C (stereo partly drawn) [compound 145, 5-[3-[(3S)-4-(5-fluoro-2-methyl-phenyl)-3-methyl-piperazin-1-yl]-3-oxo-propyl]-5-methyl-imidazolidine-2,4-dione] | > 20 µM | – | 563 nM | > 4 µM |
| COc1ccccc1C1(CCC(=O)N2CCN(c3cccc(Cl)c3)CC2)NC(=O)NC1=O (stereo not drawn) [compound 146, 5-[3-[4-(3-chlorophenyl)piperazin-1-yl]-3-oxo-propyl]-5-(2-methoxyphenyl)imidazolidine-2,4-dione] | 3.88 µM | – | 133 nM | 1.58 µM |
| C[C@H]1CN(C(=O)CCC2(C3CC3)NC(=O)NC2=O)CCN1c1ccc(Cl)cc1 (stereo partly drawn) [compound 147, 5-[3-[(3S)-4-(4-chlorophenyl)-3-methyl-piperazin-1-yl]-3-oxo-propyl]-5-cyclopropyl-imidazolidine-2,4-dione] | > 4 µM | – | 99 nM | > 4 µM |
| Cc1ccc(F)cc1N1CCN(C(=O)CCC2(C3CC3)NC(=O)NC2=O)C[C@@H]1C (stereo partly drawn) [compound 148, 5-cyclopropyl-5-[3-[(3S)-4-(5-fluoro-2-methyl-phenyl)-3-methyl-piperazin-1-yl]-3-oxo-propyl]imidazolidine-2,4-dione] | > 20 µM | – | 97 nM | > 4 µM |
| C[C@H]1CN(C(=O)CCC2(C3CC3)NC(=O)NC2=O)CCN1c1cccc(F)c1 (stereo partly drawn) [compound 151, 5-cyclopropyl-5-[3-[(3S)-4-(3-fluorophenyl)-3-methyl-piperazin-1-yl]-3-oxo-propyl]imidazolidine-2,4-dione] | > 20 µM | – | 83 nM | > 20 µM |
| C[C@H]1CN(C(=O)CCC2(C3CC3)NC(=O)NC2=O)CCN1c1cccc(Cl)c1 (stereo partly drawn) [compound 152, 5-[3-[(3S)-4-(3-chlorophenyl)-3-methyl-piperazin-1-yl]-3-oxo-propyl]-5-cyclopropyl-imidazolidine-2,4-dione] | > 20 µM | – | 62 nM | > 20 µM |
| O=C1Cc2cc(C3(CCC(=O)N4CCN(c5cccc(Cl)c5)CC4)NC(=O)NC3=O)ccc2N1 (stereo not drawn) [compound 153, 5-[3-[4-(3-chlorophenyl)piperazin-1-yl]-3-oxo-propyl]-5-(2-oxoindolin-5-yl)imidazolidine-2,4-dione] | > 4 µM | – | 114 nM | 2.27 µM |
| COCCN(C)CC1(CCC(=O)N2CCN(c3cccc(Cl)c3)CC2)NC(=O)NC1=O (stereo not drawn) [compound 154, 5-[3-[4-(3-chlorophenyl)piperazin-1-yl]-3-oxo-propyl]-5-[[2-methoxyethyl(methyl)amino]methyl]imidazolidine-2,4-dione] | > 4 µM | – | 507 nM | > 20 µM |
| C[C@H]1CN(C(=O)CCC2(C)NC(=O)NC2=O)CCN1c1cc(F)cc(F)c1 (stereo partly drawn) [compound 156, 5-[3-[(3S)-4-(3,5-difluorophenyl)-3-methyl-piperazin-1-yl]-3-oxo-propyl]-5-methyl-imidazolidine-2,4-dione] | > 20 µM | – | 128 nM | > 20 µM |
| C[C@H]1CN(C(=O)CCC2(C)NC(=O)NC2=O)CCN1c1cccc(F)c1 (stereo partly drawn) [compound 157, 5-[3-[(3S)-4-(3-fluorophenyl)-3-methyl-piperazin-1-yl]-3-oxo-propyl]-5-methyl-imidazolidine-2,4-dione] | > 20 µM | – | 284 nM | > 20 µM |
| C[C@]1(CCC(=O)N2CCN(c3cc(Cl)cc(Cl)c3)CC2)NC(=O)NC1=O [compound 159, (5R)-5-[3-[4-(3,5-dichlorophenyl)piperazin-1-yl]-3-oxo-propyl]-5-methyl-imidazolidine-2,4-dione] | > 20 µM | – | 127 nM | 1.87 µM |
| C[C@H]1CN(C(=O)CCC2(C3CC3)NC(=O)NC2=O)CCN1c1cc(F)cc(F)c1 (stereo partly drawn) [compound 160, 5-cyclopropyl-5-[3-[(3S)-4-(3,5-difluorophenyl)-3-methyl-piperazin-1-yl]-3-oxo-propyl]imidazolidine-2,4-dione] | > 20 µM | – | 36 nM | > 20 µM |
| C[C@H]1CN(C(=O)CCC2(C3CC3)NC(=O)NC2=O)CCN1c1ccc(F)c(F)c1 (stereo partly drawn) [compound 161, 5-cyclopropyl-5-[3-[(3S)-4-(3,4-difluorophenyl)-3-methyl-piperazin-1-yl]-3-oxo-propyl]imidazolidine-2,4-dione] | > 20 µM | 54 nM | 37 nM | > 20 µM |
| C[C@H]1CN(C(=O)CCC2(C3CC3)NC(=O)NC2=O)CCN1c1ccc(Cl)c(F)c1 (stereo partly drawn) [compound 162, 5-[3-[(3S)-4-(4-chloro-3-fluoro-phenyl)-3-methyl-piperazin-1-yl]-3-oxo-propyl]-5-cyclopropyl-imidazolidine-2,4-dione] | > 4 µM | 39 nM | 45 nM | > 20 µM |
| C[C@H]1CN(C(=O)CCC2(C3CC3)NC(=O)NC2=O)CCN1c1ccc(F)c(Cl)c1 (stereo partly drawn) [compound 163, 5-[3-[(3S)-4-(3-chloro-4-fluoro-phenyl)-3-methyl-piperazin-1-yl]-3-oxo-propyl]-5-cyclopropyl-imidazolidine-2,4-dione] | > 20 µM | 40 nM | 45 nM | > 20 µM |
| C[C@H]1CN(C(=O)CCC2(C3CC3)NC(=O)NC2=O)CCN1c1ccc(Cl)c(Cl)c1 (stereo partly drawn) [compound 167, 5-cyclopropyl-5-[3-[(3S)-4-(3,4-dichlorophenyl)-3-methyl-piperazin-1-yl]-3-oxo-propyl]imidazolidine-2,4-dione] | > 4 µM | 19 nM | 10 nM | > 4 µM |
| C[C@H]1CN(C(=O)CCC2(C)NC(=O)NC2=O)CCN1c1ccc(Cl)c(Cl)c1 (stereo partly drawn) [compound 168, 5-[3-[(3S)-4-(3,4-dichlorophenyl)-3-methyl-piperazin-1-yl]-3-oxo-propyl]-5-methyl-imidazolidine-2,4-dione] | > 20 µM | 76 nM | 129 nM | > 20 µM |
| C[C@H]1CN(C(=O)CCC2(C3CC3)NC(=O)NC2=O)CCN1c1cc(F)cc(Cl)c1 (stereo partly drawn) [compound 169, 5-[3-[(3S)-4-(3-chloro-5-fluoro-phenyl)-3-methyl-piperazin-1-yl]-3-oxo-propyl]-5-cyclopropyl-imidazolidine-2,4-dione] | > 20 µM | 30 nM | 27 nM | > 20 µM |
| C[C@H]1CN(C(=O)CCC2(C)NC(=O)NC2=O)CCN1c1cc(F)cc(Cl)c1 (stereo partly drawn) [compound 170, 5-[3-[(3S)-4-(3-chloro-5-fluoro-phenyl)-3-methyl-piperazin-1-yl]-3-oxo-propyl]-5-methyl-imidazolidine-2,4-dione] | > 20 µM | 170 nM | 244 nM | – |
| CC(CC1(C2CC2)NC(=O)NC1=O)C(=O)N1CCN(c2cc(Cl)cc(Cl)c2)CC1 (stereo not drawn) [compound 172, 5-cyclopropyl-5-[3-[4-(3,5-dichlorophenyl)piperazin-1-yl]-2-methyl-3-oxo-propyl]imidazolidine-2,4-dione] | 2.74 µM | 17 nM | 11 nM | 0.311 µM |
| Cc1ccc(F)cc1N1CCN(C(=O)C(C)CC2(C3CC3)NC(=O)NC2=O)CC1 (stereo not drawn) [compound 174, 5-cyclopropyl-5-[3-[4-(5-fluoro-2-methyl-phenyl)piperazin-1-yl]-2-methyl-3-oxo-propyl]imidazolidine-2,4-dione] | > 20 µM | 21 nM | 17 nM | 0.321 µM |
| CC(CC1NC(=O)NC1=O)C(=O)N1CCN(c2cc(Cl)cc(Cl)c2)CC1 (stereo not drawn) [compound 200, 5-[3-[4-(3,5-dichlorophenyl)piperazin-1-yl]-2-methyl-3-oxo-propyl]imidazolidine-2,4-dione] | > 20 µM | 109 nM | 135 nM | – |
| CC(CC1NC(=O)NC1=O)C(=O)N1CCN(c2cc(Cl)cc(Cl)c2)CC1 (stereo not drawn) [compound 219, 5-[3-[4-(3,5-dichlorophenyl)piperazin-1-yl]-2-methyl-3-oxo-propyl]imidazolidine-2,4-dione] | > 4 µM | 41 nM | 29 nM | – |
